ChEMBL document CHEMBL4387748, “Chalcone derivatives bearing chromen or benzo[f]chromen moieties: Design, synthesis, and evaluations of anti-inflammatory, analgesic, selective COX-2 inhibitory activities” (Bioorg Med Chem Lett, 2019)

How the values were obtained:
[1] = molecular target: Prostaglandin G/H synthase 2 (Ovis aries) (UniProt P79208)
[2] = tested on: Mus musculus; assay: Anti-inflammatory activity in mouse assessed as inhibition of xylene-induced ear edema at 30 mg/kg, ip dosed prior to xylene challenge and measured 1 hr post xylene injection relative to control; assay type: functional
[3] = tested on: Mus musculus; assay: Analgesic activity in mouse at 30 mg/kg, ip measured after 60 mins by hot plate technique relative to control; assay type: functional; details: 1 h
[4] = Selectivity index, ratio of IC50 for COX1 (unknown origin) to IC50 for COX2 (unknown origin); details: Homo sapiens
[5] = molecular target: Prostaglandin G/H synthase 1 (Ovis aries) (UniProt P05979)

Chain of Prostaglandin G/H synthase 2 (Ovis aries) (P79208 whole entry, looked up): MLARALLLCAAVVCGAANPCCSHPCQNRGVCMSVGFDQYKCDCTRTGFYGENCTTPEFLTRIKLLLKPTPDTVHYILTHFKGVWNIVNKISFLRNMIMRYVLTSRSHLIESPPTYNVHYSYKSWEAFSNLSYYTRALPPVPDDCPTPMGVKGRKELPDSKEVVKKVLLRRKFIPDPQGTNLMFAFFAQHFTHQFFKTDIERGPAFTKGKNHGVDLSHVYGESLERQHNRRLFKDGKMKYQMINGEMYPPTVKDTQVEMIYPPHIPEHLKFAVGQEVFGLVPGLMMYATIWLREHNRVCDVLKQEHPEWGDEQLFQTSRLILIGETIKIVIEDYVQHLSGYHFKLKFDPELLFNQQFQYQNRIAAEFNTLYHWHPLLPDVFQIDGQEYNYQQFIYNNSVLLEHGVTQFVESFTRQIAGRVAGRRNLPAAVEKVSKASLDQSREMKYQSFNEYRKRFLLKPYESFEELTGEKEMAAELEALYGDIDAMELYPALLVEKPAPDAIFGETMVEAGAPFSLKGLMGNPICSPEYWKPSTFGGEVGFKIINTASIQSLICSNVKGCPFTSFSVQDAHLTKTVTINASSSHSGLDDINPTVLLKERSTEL

SMILES | IC50 [1] [µM] | inhibition in vivo at 30 mg/kg [2] [%] | inhibition in vivo at 30 mg/kg [3] [%] | Ratio IC50 [4] | IC50 [5] [µM]
O=C(/C=C/C1=Cc2ccccc2OC1)c1ccc(F)cc1 | 0.37 | 65.6 | 66.7 to 100 | 22.5 | 8.32
O=C(/C=C/C1=Cc2c(ccc3ccccc23)OC1)c1ccc(Cl)cc1Cl | 0.29 | 84.1 | 100 | 27.3 | 7.92
CN(C)c1ccc(C(=O)/C=C/C2=Cc3c(ccc4ccccc34)OC2)cc1 | – | 67.2 | 96.2 to 100 | – | –
O=C(/C=C/C1=Cc2ccccc2OC1)c1ccc(Cl)cc1 | – | 56.1 | 66.7 to 100 | – | –
O=C(/C=C/C1=Cc2c(ccc3ccccc23)OC1)c1ccc(Br)cc1 | – | 57.5 | 96.2 to 100 | – | –
O=C(/C=C/C1=Cc2c(ccc3ccccc23)OC1)c1cccc(F)c1 | – | 70.1 | 96.2 to 100 | – | –
O=C(/C=C/C1=Cc2c(ccc3ccccc23)OC1)c1ccc(C(F)(F)F)cc1 | 0.33 | 83.6 | 100 | 26.1 | 8.63
O=C(/C=C/C1=Cc2c(ccc3ccccc23)OC1)c1ccccc1Br | – | 79.8 | 96.2 to 100 | – | –
O=C(/C=C/C1=Cc2ccccc2OC1)c1ccc(Br)cc1 | 0.42 | 66 | 66.7 to 100 | 17.2 | 7.21
O=C(/C=C/C1=Cc2c(ccc3ccccc23)OC1)c1ccc([N+](=O)[O-])cc1 | 0.25 | 76.3 | 100 | 31.1 | 7.77
CCc1ccc(C(=O)/C=C/C2=Cc3ccccc3OC2)cc1 | 0.39 | 68.1 | 66.7 to 100 | 15.9 | 6.22
O=C(/C=C/C1=Cc2c(ccc3ccccc23)OC1)c1ccccc1Cl | – | 66.1 | 96.2 to 100 | – | –
Cc1ccc(C(=O)/C=C/C2=Cc3c(ccc4ccccc34)OC2)cc1 | – | 74.6 | 96.2 to 100 | – | –
O=C(/C=C/C1=Cc2c(ccc3ccccc23)OC1)c1cccc(Br)c1 | – | 67.9 | 96.2 to 100 | – | –
O=C(/C=C/C1=Cc2c(ccc3ccccc23)OC1)c1ccc(Cl)cc1 | – | 67.1 | 96.2 to 100 | – | –
O=C(/C=C/C1=Cc2ccccc2OC1)c1ccccc1Cl | – | 52.3 | 66.7 to 100 | – | –
COc1ccc(C(=O)/C=C/C2=Cc3c(ccc4ccccc34)OC2)cc1 | 0.38 | 79.3 | 96.2 to 100 | 23.8 | 9.04
O=C(/C=C/C1=Cc2ccccc2OC1)c1ccc(Cl)cc1Cl | – | 53.3 | 66.7 to 100 | – | –
Nc1ccc(C(=O)/C=C/C2=Cc3c(ccc4ccccc34)OC2)cc1 | – | 67.1 | 96.2 to 100 | – | –
CN(C)c1ccc(C(=O)/C=C/C2=Cc3ccccc3OC2)cc1 | – | 57.3 | 66.7 to 100 | – | –

SMILES | IC50 [1] [µM] | inhibition in vivo at 30 mg/kg [2] [%] | inhibition in vivo at 30 mg/kg [3] [%] | Ratio IC50 [4] | IC50 [5] [µM]
COc1ccc(C(=O)/C=C/C2=Cc3ccccc3OC2)cc1OC | 0.46 | 67.6 | 66.7 to 100 | 15.4 | 7.08
O=C(/C=C/C1=Cc2c(ccc3ccccc23)OC1)c1cccc(Cl)c1 | – | 75 | 96.2 to 100 | – | –
O=C(/C=C/C1=Cc2ccccc2OC1)c1ccc(C(F)(F)F)cc1 | 0.83 | 75.5 | 100 | 9.34 | 7.75
O=C(/C=C/C1=Cc2c(ccc3ccccc23)OC1)c1ccccc1F | 0.31 | 73.3 | 96.2 to 100 | 20.7 | 6.41
Cc1ccc(C(=O)/C=C/C2=Cc3ccccc3OC2)cc1C | – | 48.1 | 66.7 to 100 | – | –
O=C(/C=C/C1=Cc2ccccc2OC1)c1ccc([N+](=O)[O-])cc1 | – | 50.8 | 85.1 | – | –
COc1ccc(C(=O)/C=C/C2=Cc3ccccc3OC2)cc1 | 0.46 | 66.2 | 66.7 to 100 | 20 | 9.2
O=C(/C=C/C1=Cc2ccccc2OC1)c1cccc(Cl)c1 | – | 51 | 66.7 to 100 | – | –
O=C(/C=C/C1=Cc2ccccc2OC1)c1ccccc1Br | – | 56.6 | 66.7 to 100 | – | –
Cc1ccc(C(=O)/C=C/C2=Cc3ccccc3OC2)cc1 | – | 53.1 | 66.7 to 100 | – | –
Nc1ccc(C(=O)/C=C/C2=Cc3ccccc3OC2)cc1 | – | 52.6 | 66.7 to 100 | – | –
O=C(/C=C/C1=Cc2c(ccc3ccccc23)OC1)c1ccc(F)cc1 | – | 57.3 | 96.2 to 100 | – | –
O=C(/C=C/C1=Cc2ccccc2OC1)c1ccccc1F | – | 64.4 | 66.7 to 100 | – | –
Cc1ccc(C(=O)/C=C/C2=Cc3c(ccc4ccccc34)OC2)cc1C | – | 54.2 | 96.2 to 100 | – | –
O=C(/C=C/C1=Cc2ccccc2OC1)c1cccc(F)c1 | – | 52.4 | 66.7 to 100 | – | –
CCc1ccc(C(=O)/C=C/C2=Cc3c(ccc4ccccc34)OC2)cc1 | 0.43 | 83.1 | 96.2 to 100 | 20.7 | 8.89
COc1ccc(C(=O)/C=C/C2=Cc3c(ccc4ccccc34)OC2)cc1OC | – | 55.1 | 96.2 to 100 | – | –
O=C(/C=C/C1=Cc2ccccc2OC1)c1cccc(Br)c1 | – | 51.7 | 66.7 to 100 | – | –
COc1ccc2c(c1)c(CC(=O)O)c(C)n2C(=O)c1ccc(Cl)cc1 [INDOMETHACIN] | – | 64.3 to 82.2 | – | – | –
